Measured values from patent US20230212571A1, “COMPOSITIONS AND METHODS FOR DELIVERING POLYNUCLEOTIDES” (NeOnc Technologies, Inc., priority 2020, published 2023).

Legend:
AVM-BEC [1] = experiment: Western blot of AVM-BEC lysates; format: cell-based, human
From the text: (§1) Human surgical specimens were obtained following written informed consent from patients in accordance with Declaration of Helsinki guidelines and the Institutional Review Board (HS-04B053), at Keck School of Medicine, USC. AVM-BECs were isolated from brain tissues of patients who underwent microsurgical AVM resection. Control BECs were isolated from the structurally normal […] of patients who underwent temporal lobectomy for intractable epilepsy. Endothelial cell (EC) isolation and culture were described^5,9. (Stapleton C J, Armstrong D L, Zidovetzki R, Liu C Y, Giannotta S L, Hofman F M. Thrombospondin-1 modulates the angiogenic phenotype of human cerebral arteriovenous malformation endothelial cells. Neurosurgery. 2011; 68(5):1342-1353) (Ferreira R, Santos T, Amar A, et al. Argonaute-2 promotes miR-18a entry in human brain endothelial cells. J Am Heart Assoc. 2014; 3(3):e000968) ECs were only used between passages 3-5. Experiments were performed under shear flow conditions (12 dyn/cm^2) to reproduce arterial flow^6. (Ferreira R, Santos T, Amar A, et al. MicroRNA-18a improves human cerebral arteriovenous malformation endothelial cell function. Stroke. 2014; 45(1):293-297). For hypoxic experiments, cells were cultured in a Galaxy 48R (Eppendorf) incubator at 3% O2. MicroRNAs were co-administered with Ago-2 to increase the cellular uptake of miR-18a^9 (Ferreira R, Santos T, Amar A, et al. Argonaute-2 promotes miR-18a entry in human brain endothelial cells. J Am Heart Assoc. 2014; 3(3):e000968) (FIG. 9). Methods regarding cell treatments and transfections were included in Data.
(§2) MiR-18a (hsa-miR-18a-5p, 40 nM, Dharmacon) or a scramble microRNA (40 nM, Dharmacon) in nuclease-free water was added with argonaute 2 (Ago-2, 0.4 nM, Abcam) as the microRNA carrier and stabilizer^9. (Ferreira R, Santos T, Amar A, et al. Argonaute-2 promotes miR-18a entry in human brain endothelial cells. J Am Heart Assoc. 2014; 3(3):e000968). No transfection reagent was used with miR-18a or scramble microRNA treatments. Recombinant human TSP-1 (R&D Systems) stock solution was prepared in PBS and further diluted in culture medium to be used at a final concentration of 1000 ng/mL. Cells were treated during 24 h for mRNA and 48 h for protein expression studies. NEO100 (NeOnc Technologies) stock was prepared in DMSO and used immediately or stored at −20° C.
(§3) The levels of angiogenesis-related proteins were analyzed using the Proteome Profiler™ Human Angiogenesis Array kit (R&D Systems) following the manufacturer's instructions. The protocol for western blot was published^10. (Marín-Ramos N I, Alonso D, Ortega-Gutiérrez S, et al. New inhibitors of angiogenesis with antitumor activity in vivo. J Med Chem. 2015; 58(9):3757-3766). Information about antibodies used was included in Table 1. Membranes were visualized and quantified using a C-Digit Blot scanner (Li-Cor) or a iBright CL1000 (Thermo Fisher Scientific).

AVM-BEC [2] = experiment: RT-qPCR mRNA expression in AVM-BEC; format: cell-based, human
From the text: as §1, §2
The extraction and analysis of total mRNA and microRNAs were described^9,13. (Ferreira R, Santos T, Amar A, et al. Argonaute-2 promotes miR-18a entry in human brain endothelial cells. J Am Heart Assoc. 2014; 3(3):e000968) (Marín-Ramos N I, Jhaveri N, Thein T Z, Fayngor R A, Chen T C, Hofman F M. NEO212, a conjugate of temozolomide and perillyl alcohol, blocks the endothelial-to-mesenchymal transition in tumor-associated brain endothelial cells in glioblastoma. Cancer Lett. 2018; 442:170-180). The Human Notch Signaling Pathway RT^2 Profiler PCR Array (Qiagen) was used to analyze the expression of 84 genes related to Notch signaling. For mRNA studies, […] (B2M) was measured for sample normalization. The primer sequences were included in Table 2. For microRNA analysis, RNU44 and U6 snRNA TaqMan microRNA Control Assays were used for normalization of human and mice samples, respectively.

AVM-BEC [3] = experiment: Proteome Profiler Human Angiogenesis Array of AVM-BEC lysates; format: cell-based
From the text: as §1, §2, §3

BEC = experiment: RT-qPCR mRNA expression in control BEC; format: cell-based, human
From the text: as §1, §2
The extraction and analysis of total mRNA and microRNAs were described^9,13. […] For mRNA studies, 02-Microglobulin (B2M) was measured for sample normalization. […]

Substance: hsa-miR-18a-5p (UAGGUGCAUCUAGUGCAGAUAG; chemistry not given here; listed as Homo sapiens) [small non-coding RNA molecule involved in post-transcriptional regulation of gene expression; Dharmacon]
- MMP9 protein levels (western blot) (AVM-BEC [1]; AVM-BEC): not significantly (P=0.9409) affected
- ratio MMP2/MMP9 protein levels (AVM-BEC [1]; AVM-BEC): lowers the ratio MMP2/MMP9
- ADAM10 protein levels (western blot) (AVM-BEC [1]; AVM-BEC, P<0.001): significantly decreased
- MMP2 protein levels (western blot) (AVM-BEC [1]; AVM-BEC, P=0.0132): significantly decreased
- levels of TGF-β (western blot) (AVM-BEC [1]; AVM-BEC, P>0.9999): not significantly changed
- phosphorylation levels of Smad3 (AVM-BEC [1]; AVM-BEC, P>0.9999): Neither the phosphorylation levels of Smad3 nor the total levels of Smad4 were altered
- total levels of Smad4 (AVM-BEC [1]; AVM-BEC, P>0.9999): Neither the phosphorylation levels of Smad3 nor the total levels of Smad4 were altered
- phosphorylation levels of Smad1/5 (AVM-BEC [1]; AVM-BEC, vs scramble): significantly (P<0.0001) decreased
- PAI-1 protein levels (western blot) (AVM-BEC [1]; patient-derived AVM-BEC, vs scramble microRNA, P<0.001, n=8): decreased
- BMP4 mRNA expression (AVM-BEC [2]; AVM-BEC, 24 h, vs scramble, P=0.0022): normalized
- MMP2 mRNA expression (AVM-BEC [2]; AVM-BEC, P=0.0004): normalized
- MMP9 mRNA expression (AVM-BEC [2]; AVM-BEC, P=0.0091): normalized
- HIF-1α expression (AVM-BEC [2]; AVM-BEC, hypoxia 3% O2): remained unaltered
- HIF-1α expression (AVM-BEC [2]; AVM-BEC, normoxia): significantly (P=0.0025) decreased
- ALK2 mRNA expression (AVM-BEC [2]; AVM-BEC, vs scramble, P<0.0001): normalized
- MGP mRNA expression (AVM-BEC [2]; AVM-BEC, vs scramble, P<0.0001): normalized
- ALK1 mRNA expression (AVM-BEC [2]; AVM-BEC, vs scramble, P=0.0013): normalized
- ALK5 mRNA expression (AVM-BEC [2]; AVM-BEC, vs scramble, P=0.0072): normalized
- BMP9 mRNA expression (AVM-BEC [2]; non-HHT related AVM-BEC, P>0.05): No significant differences
- bFGF levels, decrease compared to scramble miR-treated AVM-BEC (AVM-BEC [3]; shear flow 12 dyn/cm2, miR-18a 40 nM with Ago-2 0.4 nM, n=1): 2 fold
- IGFBP-1 levels, upregulation compared to scramble miR-treated AVM-BEC (AVM-BEC [3]; shear flow, miR-18a 40 nM with Ago-2, n=1): 2 fold
- TSP-1 protein levels in AVM-BEC lysates (AVM-BEC [3]; vs scramble miR, n=1): did not observe any relevant differences
- downregulation of PAI-1 (AVM-BEC [3]; vs scramble miR, n=1): 20%
- upregulation of endothelin-1 (ET-1) (AVM-BEC [3]; vs scramble miR, n=1): > 20%
- upregulation of pentraxin 3 (PTX3) (AVM-BEC [3]; vs scramble miR, n=1): > 20%
- ALK1 mRNA expression (BEC; P=0.0482): decreased
- BMP4, ALK2, ALK5 and MGP mRNA expression (BEC; P>0.05): No significant differences
- HIF-1α expression (BEC; hypoxia 3% O2): remained unaltered
- HIF-1α expression (BEC; normoxia, P>0.9999): without affecting BEC
